In ChEMBL document CHEMBL1135307, “Novel diamide-based inhibitors of IMPDH” (Bioorg Med Chem Lett, 2002) one finds IC50 data, which are given here for 21 molecules.

Some results are limits rather than exact numbers.

This test has as its target Inosine-5'-monophosphate dehydrogenase 2 (Homo sapiens, UniProt P12268). Briefly: Inhibition of human Inosine-5'-monophosphate dehydrogenase 2.
`CC(C)(C)NC(=O)C(=O)Nc1ccc(-c2cnco2)c(Cl)c1`: the IC50 worked out at 55 nM. That is a double-digit nanomolar value.

Molecule `COc1cc(NC(=O)CC(=O)Nc2ccccc2)ccc1-c1cnco1` yielded an IC50 of 400 nM.

`COc1cc(NC(=O)C(=O)NC(C)(C)CN(C)C)ccc1-c1cnco1` displayed an IC50 of 47 nM. This IC50 lies about 8.5-fold lower than the previous one.

Molecule `CC(C)(C)NC(=O)C(=O)Nc1ccc(-c2cnco2)c(Br)c1` showed an IC50 of 50 nM.

The molecule `COC(=O)C(C)(C)NC(=O)C(=O)Nc1ccc(-c2cnco2)c(OC)c1` displayed an IC50 of 74 nM.

Molecule `COc1cc(NC(=O)C(=O)N(C)C(C)(C)C)ccc1-c1cnco1` yielded an IC50 greater than 10000 nM.

With `COc1cc(NC(=O)C(=O)NC(C)(C)C)ccc1-c1cnco1`, half-maximal inhibition (IC50) was put at 10 nM.

In turn, `COc1cc(NC(=O)C(=O)Nc2cccc(CNC(=O)O[C@@H]3CCOC3)c2)ccc1-c1cnco1` registered an IC50 of 30 nM.

`COc1cc(NC(=O)CC(=O)Nc2cccc(C)c2)ccc1-c1cnco1` came in with an IC50 of 440 nM.

The molecule `COc1cc(NC(=O)C(=O)N(C)c2ccccc2)ccc1-c1cnco1` displayed an IC50 greater than 10000 nM.

The molecule `COc1cc(NC(=O)C(=O)NC(C)C)ccc1-c1cnco1` came in with a concentration for half-maximal inhibition (IC50) greater than 10000 nM.

As for `COc1cc(NC(=O)C(=O)NC(C)(C)CO)ccc1-c1cnco1`, the IC50 was found to be 19 nM.

In turn, `CC(C)(C)NC(=O)C(=O)Nc1ccc(-c2cnco2)cc1` displayed an IC50 greater than 10000 nM.

`Cc1ncoc1-c1ccc(NC(=O)C(=O)NC(C)(C)C)cc1` returned a half-inhibitory concentration (IC50) greater than 10000 nM.

Consider `COc1cc(NC(=O)C(=O)NCc2ccccc2)ccc1-c1cnco1`, for which the concentration for half-maximal inhibition (IC50) is greater than 10000 nM.

The molecule `COc1cc(NC(=O)C(=O)NC2CCCCC2)ccc1-c1cnco1` came in with an IC50 greater than 10000 nM.

`COc1cc(NC(=O)C(=O)NNc2ccccc2)ccc1-c1cnco1` registered an IC50 greater than 10000 nM.

`CCCNC(=O)C(=O)Nc1ccc(-c2cnco2)c(OC)c1` gave an IC50 greater than 10000 nM.

For `COc1cc(NC(=O)C(=O)Nc2ccccc2)ccc1-c1cnco1`, the IC50 worked out at 52 nM.

Molecule `COc1cc(NC(=O)C(=O)NC(C)(C)C(=O)O)ccc1-c1cnco1` showed an IC50 greater than 10000 nM.

`COc1cc(NC(=O)C(=O)NC2(CO)CCCC2)ccc1-c1cnco1` came in with an IC50 of 18 nM.
